Experimental data: patent US10111432B2, “Picolinamide N-oxide compounds with fungicidal activity” (Dow AgroSciences LLC, priority 2016, dated 2018)
Like-named read-outs stand apart in the source and are kept apart here.

How the values were obtained:
Zymoseptoria tritici = test: Fungicidal activity: leaf blotch of wheat (SEPTTR), disease control on wheat seedlings; type: in vivo; settings: for pest or weed control at 100 ppm: high volume application; for pest or weed control at 121.5 g/ha: low volume application, 121.5 g/H
Procedure: Technical grades of materials were dissolved in acetone, which were then mixed with nine volumes of water (H2O) containing 110 ppm Triton X-100. The fungicide solutions were applied onto wheat seedlings using an automated booth sprayer to run-off. All sprayed plants were allowed to air dry prior to further handling. All fungicides were evaluated using the aforementioned method for their activity vs. all target diseases, unless stated otherwise. Wheat leaf blotch and brown rust activity were also evaluated using track spray applications, in which case the fungicides were formulated as EC formulations, containing 0.1% Trycol 5941 in the spray solutions. Wheat plants (variety Yuma) were grown from seed in a greenhouse in 50% mineral soil/50% soil-less Metro mix until the first leaf was fully emerged, with 7-10 seedlings per pot. These plants were inoculated with an aqueous spore suspension of Zymoseptoria tritici either prior to or after fungicide treatments. After inoculation the plants were kept in 100% relative humidity (one day in a dark dew chamber followed by two to three days in a lighted dew chamber at 20° C.) to permit spores to germinate and infect the leaf. The plants were then transferred to a greenhouse set at 20° C. for disease to develop. When disease symptoms were fully expressed on the 1st leaves of untreated plants, infection levels were assessed on a scale of 0 to 100 percent disease severity. Percent disease control was calculated using the ratio of disease severity on treated plants relative to untreated plants.

Puccinia triticina = test: Fungicidal activity: wheat brown rust (PUCCRT), disease control on wheat seedlings; type: in vivo; settings: for pest or weed control at 121.5 g/ha: low volume application, 121.5 g/H; for pest or weed control at 100 ppm: high volume application
Procedure: Technical grades of materials were dissolved in acetone, which were then mixed with nine volumes of water (H2O) containing 110 ppm Triton X-100. The fungicide solutions were applied onto wheat seedlings using an automated booth sprayer to run-off. All sprayed plants were allowed to air dry prior to further handling. All fungicides were evaluated using the aforementioned method for their activity vs. all target diseases, unless stated otherwise. Wheat leaf blotch and brown rust activity were also evaluated using track spray applications, in which case the fungicides were formulated as EC formulations, containing 0.1% Trycol 5941 in the spray solutions. Wheat plants (variety Yuma) were grown from seed in a greenhouse in 50% mineral soil/50% soil-less Metro mix until the first leaf was fully emerged, with 7-10 seedlings per pot. These plants were inoculated with an aqueous spore suspension of Puccinia triticina either prior to or after fungicide treatments. After inoculation the plants were kept in a dark dew room at 22° C. with 100% relative humidity overnight to permit spores to germinate and infect the leaf. The plants were then transferred to a greenhouse set at 24° C. for disease to develop. Fungicide formulation, application and disease assessment followed the procedures as described in the Example A. Results of the evaluations are shown below in Table 4.

[1] = 24 h, 1 day protectant, read-out: SEPTTR disease control, 1DP, HV activity at 100 ppm
[2] = 24 h, 1 day protectant, read-out: SEPTTR disease control, 1DP, LV activity at 121.5 g/H
[3] = 72 h, 3 day curative, read-out: SEPTTR disease control, 3DC, LV activity at 121.5 g/H
[4] = 24 h, 1 day protectant, read-out: PUCCRT disease control, 1DP, LV activity at 121.5 g/H
[5] = 24 h, 1 day protectant, read-out: PUCCRT disease control, 1DP, HV activity at 100 ppm
[6] = 72 h, 3 day curative, read-out: PUCCRT disease control, 3DC, HV activity at 100 ppm
[7] = 72 h, 3 day curative, read-out: PUCCRT disease control, 3DC, LV activity at 121.5 g/H
[8] = 72 h, 3 day curative, read-out: SEPTTR disease control, 3DC, HV activity at 100 ppm

Row | SMILES | pest or weed control at 100 ppm (Zymoseptoria tritici; [1]) | pest or weed control at 121.5 g/ha (Zymoseptoria tritici; [2]) | pest or weed control at 121.5 g/ha (Zymoseptoria tritici; [3]) | pest or weed control at 121.5 g/ha (Puccinia triticina; [4]) | pest or weed control at 100 ppm (Puccinia triticina; [5]) | pest or weed control at 100 ppm (Puccinia triticina; [6]) | pest or weed control at 121.5 g/ha (Puccinia triticina; [7]) | pest or weed control at 100 ppm (Zymoseptoria tritici; [8])
1 | COc1cc[n+]([O-])c(C(=O)N[C@@H](C)C(=O)O[C@@H](C)C(O)(c2ccc(Cl)c(Cl)c2)c2ccc(Cl)c(Cl)c2)c1O [Compound 11] | > 80% | > 80% | ≤ 80% |  |  |  |  | 
2 | COc1cc[n+]([O-])c(C(=O)N[C@@H](C)C(=O)O[C@@H](C)[C@H](c2ccccc2)c2ccc(C)cc2F)c1O [Compound 33] |  | > 80% | ≤ 80% | ≤ 80% |  |  |  | 
3 | COc1cc[n+]([O-])c(C(=O)N[C@@H](C)C(=O)O[C@H](C(C)C)[C@H](C)Oc2ccccc2)c1O [Compound 10] | ≤ 80% | > 80% |  | > 80% | > 80% | > 80% | > 80% | 
4 | COc1cc[n+]([O-])c(C(=O)N[C@@H](C)C(=O)O[C@@H](C)C(c2ccc(Cl)c(F)c2)c2ccc(Cl)c(F)c2)c1O [Compound 6] | > 80% | > 80% | > 80% | ≤ 80% | > 80% |  |  | > 80%
5 | COc1cc[n+]([O-])c(C(=O)N[C@@H](C)C(=O)O[C@@H](C)C(c2ccc(C)c(C)c2)c2ccc(C)c(C)c2)c1O [Compound 15] |  | > 80% | > 80% | ≤ 80% |  |  | ≤ 80% | 
6 | COc1cc[n+]([O-])c(C(=O)N[C@@H](C)C(=O)O[C@@H](C)C(c2ccc(F)c(C)c2)c2ccc(F)c(C)c2)c1O [Compound 17] |  | > 80% | > 80% | ≤ 80% |  |  | ≤ 80% | 
7 | COc1cc[n+]([O-])c(C(=O)N[C@@H](C)C(=O)O[C@@H](C)[C@@H](c2ccccc2)c2ccc(F)cc2C)c1O [Compound 22] | > 80% | > 80% | > 80% | > 80% | > 80% | > 80% | > 80% | > 80%
8 | COc1cc[n+]([O-])c(C(=O)N[C@@H](C)C(=O)O[C@@H](C)C(c2cccc(C)c2)c2cccc(C)c2)c1O [Compound 25] | > 80% | > 80% | > 80% | > 80% | > 80% | > 80% | > 80% | > 80%
9 | COc1cc[n+]([O-])c(C(=O)N[C@@H](C)C(=O)O[C@@H](C)C(c2cccc(F)c2)c2cccc(F)c2)c1O [Compound 35] |  | ≤ 80% | ≤ 80% |  |  |  |  | 
10 | COc1cc[n+]([O-])c(C(=O)N[C@@H](C)C(=O)O[C@@H](C)[C@H](c2ccc(C)cc2)c2ccc(C)cc2F)c1O [Compound 28] | > 80% | > 80% | > 80% | > 80% | > 80% |  | ≤ 80% | > 80%
11 | CCOc1cc(F)ccc1C(c1ccc(F)cc1OCC)[C@H](C)OC(=O)[C@H](C)NC(=O)c1c(O)c(OC)cc[n+]1[O-] [Compound 32] |  | ≤ 80% | ≤ 80% | ≤ 80% |  |  |  | 
12 | COc1cc[n+]([O-])c(C(=O)N[C@@H](C)C(=O)O[C@@H](C)C(c2ccc(Cl)cc2)c2ccc(Cl)cc2)c1O [Compound 34] |  | > 80% | > 80% | > 80% |  |  |  | 
13 | COc1cc[n+]([O-])c(C(=O)N[C@@H](C)C(=O)O[C@@H](C)C(c2ccc(F)c(F)c2OC)c2ccc(F)c(F)c2OC)c1O [Compound 12] | > 80% | > 80% | > 80% | > 80% | > 80% | ≤ 80% | ≤ 80% | > 80%
14 | COc1cccc(C(c2cccc(OC)c2)[C@H](C)OC(=O)[C@H](C)NC(=O)c2c(O)c(OC)cc[n+]2[O-])c1 [Compound 36] |  | ≤ 80% |  | ≤ 80% |  |  |  | 
15 | COc1cc[n+]([O-])c(C(=O)N[C@@H](C)C(=O)O[C@@H](C)C(c2ccc(Cl)c(C)c2)c2ccc(Cl)c(C)c2)c1O [Compound 7] |  | > 80% | > 80% | > 80% |  |  | ≤ 80% | 
16 | COc1ccc(F)cc1C(c1cc(F)ccc1OC)[C@H](C)OC(=O)[C@H](C)NC(=O)c1c(O)c(OC)cc[n+]1[O-] [Compound 41] |  | ≤ 80% | ≤ 80% |  |  |  |  | 
17 | COc1cc[n+]([O-])c(C(=O)N[C@@H](C)C(=O)O[C@@H](C)[C@H](c2ccc(F)cc2)c2ccc(F)cc2C)c1O [Compound 38] |  | > 80% | > 80% | ≤ 80% |  |  |  | 
18 | COc1cc[n+]([O-])c(C(=O)N[C@@H](C)C(=O)O[C@@H](C)[C@@H](c2ccc(F)cc2)c2ccc(F)cc2C)c1O [Compound 29] | > 80% | > 80% | > 80% | > 80% | > 80% | > 80% | ≤ 80% | > 80%
19 | COc1cc[n+]([O-])c(C(=O)N[C@@H](C)C(=O)O[C@@H](C)C(C)(c2ccccc2)c2ccccc2)c1O [Compound 27] | > 80% | ≤ 80% | ≤ 80% |  |  |  |  | > 80%
20 | COc1cc(F)ccc1[C@@H](c1ccc(F)c(C)c1)[C@H](C)OC(=O)[C@H](C)NC(=O)c1c(O)c(OC)cc[n+]1[O-] [Compound 23] | > 80% |  |  |  | > 80% | > 80% |  | > 80%
21 | COc1cc[n+]([O-])c(C(=O)N[C@@H](C)C(=O)O[C@@H](C)[C@@H](c2ccccc2)c2ccc(F)c(C)c2)c1O [Compound 31] | > 80% | > 80% | > 80% | > 80% | > 80% | > 80% | ≤ 80% | > 80%
22 | COc1ccc(C(c2ccc(OC)cc2)[C@H](C)OC(=O)[C@H](C)NC(=O)c2c(O)c(OC)cc[n+]2[O-])cc1 [Compound 26] | > 80% |  |  |  | > 80% | > 80% |  | > 80%
23 | COc1cc[n+]([O-])c(C(=O)N[C@@H](C)C(=O)O[C@@H](C)C(c2ccc(F)c(F)c2)c2ccc(F)c(F)c2)c1O [Compound 21] |  | > 80% | > 80% |  |  |  | ≤ 80% | 
24 | COc1cc[n+]([O-])c(C(=O)N[C@@H](C)C(=O)O[C@@H](C)C(O)(c2ccc(Cl)c(F)c2)c2ccc(Cl)c(F)c2)c1O [Compound 9] | > 80% | > 80% |  |  |  |  |  | 
25 | COc1cc[n+]([O-])c(C(=O)N[C@@H](C)C(=O)O[C@@H](C)C(c2cccc(OC)c2OC)c2cccc(OC)c2OC)c1O [Compound 40] |  |  | ≤ 80% |  |  |  |  | 
